Measurements published in ChEMBL document CHEMBL2375280, “Synthesis of novel 1,3,4-trisubstituted pyrazoles as anti-inflammatory and analgesic agents” (Eur J Med Chem, 2013).

Columns and labels:
Rattus norvegicus [1] = assay: Antiinflammatory activity in Wistar albino rat assessed as inhibition of carrageenan-induced paw edema at 0.08 mmol/kg, ip administered 1 hr prior to carrageenan challenge measured at 3 hrs by plethysmometric analysis relative to control; format: functional
Rattus norvegicus [2] = assay: Antiinflammatory activity in Wistar albino rat assessed as inhibition of carrageenan-induced paw edema at 0.32 mmol/kg, ip administered 1 hr prior to carrageenan challenge measured at 3 hrs by plethysmometric analysis relative to control; format: functional
Rattus norvegicus [3] = assay: Ulcerogenic effect in albino rat stomach assessed as ulcer index at 0.32 mmol/kg, po administered for 3 days measured 2 hrs post last dose; format: toxicity, organism-based; settings: in vivo
Rattus norvegicus [4] = assay: Antiinflammatory activity in Wistar albino rat assessed as inhibition of carrageenan-induced paw edema at 0.16 mmol/kg, ip administered 1 hr prior to carrageenan challenge measured at 3 hrs by plethysmometric analysis relative to control; format: functional
Homo sapiens = species: Homo sapiens; assay: Selectivity ratio for COX1 (unknown origin) over COX2 (unknown origin)
Rattus norvegicus [5] = assay: Antiinflammatory activity in Wistar albino rat assessed as inhibition of carrageenan-induced paw edema at 0.32 mmol/kg, ip administered 1 hr prior to carrageenan challenge measured at 2 hrs by plethysmometric analysis relative to control; format: functional
Mus musculus = assay: Analgesic activity in albino mouse assessed as protection against p-benzoquinone-induced writhing at 0.32 mmol/kg, ip administered 1 hr prior to p-benzoquinone challenge measured for 30 mins relative to control; format: functional
[6] = Acute toxicity in ip dosed mouse assessed as mortality measured for 24 hrs; format: organism-based; settings: in vivo
Rattus norvegicus [7] = assay: Antiinflammatory activity in ip dosed Wistar albino rat assessed as inhibition of carrageenan-induced paw edema administered 1 hr prior to carrageenan challenge measured at 3 hrs by plethysmometric analysis; format: functional, organism-based

| Compound | inhibition in vivo at 320 µmol/kg (Rattus norvegicus [2]) [%] | inhibition in vivo at 320 µmol/kg (Rattus norvegicus [5]) [%] | Activity (Mus musculus) [%] | also measured |
| --- | --- | --- | --- | --- |
| COc1ccc(/N=C\c2cn(-c3ccc(Cl)cc3)nc2-c2ccc(OC)cc2)cc1 | 82.2 | 69.2 | 66.67 | inhibition in vivo at 80 µmol/kg (Rattus norvegicus [1]): 37.5%; UI (Rattus norvegicus [3]): 14.32; inhibition in vivo at 160 µmol/kg (Rattus norvegicus [4]): 43%; Selectivity ratio (Homo sapiens): 1.17; LD50 at 24 h [6]: 3250 µmol/kg; IC50 (Rattus norvegicus [7]): 0.2 mmol/kg |
| COc1ccc2c(c1)c(CC(=O)O)c(C)n2C(=O)c1ccc(Cl)cc1 |  |  |  | Selectivity ratio (Homo sapiens): 3.94 |
| COc1ccc(-c2[nH]c(-c3ccc(Cl)cc3)cc2-c2cn(-c3ccc(S(N)(=O)=O)cc3)nc2-c2ccc(C)cc2)cc1 | 34.2 | 49.7 | 50 |  |
| COc1ccc(-c2nn(-c3ccc(S(N)(=O)=O)cc3)cc2/C=C\C(=O)c2ccc(Cl)cc2)cc1 | 56 | 55.6 |  |  |
| Cc1ccc(-c2nn(-c3ccc(Cl)cc3)cc2/C=N\c2ccc(Cl)cc2)cc1 | 49.2 | 48.3 |  |  |
| COc1ccc(-c2nn(-c3ccc(S(N)(=O)=O)cc3)cc2-c2cc(-c3ccc(Cl)cc3)[nH]c2-c2ccc(OC)cc2)cc1 | 28.6 | 48.1 |  |  |
| COc1ccc(-c2nn(-c3ccc(Cl)cc3)cc2-c2cc(-c3ccc(Cl)cc3)[nH]c2-c2ccc(OC)cc2)cc1 | 20.7 | 10.5 |  |  |
| COc1ccc(-c2nn(-c3ccc(Cl)cc3)cc2/C=C\C(=O)c2ccc(Cl)cc2)cc1 | 66.4 | 53.7 |  |  |
| COc1ccc(/N=C\c2cn(-c3ccc(Cl)cc3)nc2-c2ccc(C)cc2)cc1 | 48.9 | 62 | 16.67 |  |
| COc1ccc(-c2nn(-c3ccc(Cl)cc3)cc2/C=N\c2ccccc2)cc1 | 72.6 | 57.2 | 16.67 |  |
| COc1ccc(-c2nn(-c3ccc(S(N)(=O)=O)cc3)cc2/C=N\c2ccccc2)cc1 | 55.4 | 38.5 |  |  |
| COc1ccc(-c2nn(-c3ccc(S(N)(=O)=O)cc3)cc2/C=N\c2ccc(Cl)cc2)cc1 | 62.8 | 63 | 50 | LD50 at 24 h [6]: 2440 µmol/kg |
| COc1ccc(-c2nn(-c3ccc(Cl)cc3)cc2C(CC(=O)c2ccc(Cl)cc2)C(=O)c2ccc(F)cc2)cc1 (centres undefined) | 37.8 | 19.8 |  |  |
| COc1ccc(/N=C\c2cn(-c3ccc(S(N)(=O)=O)cc3)nc2-c2ccc(C)cc2)cc1 | 56.2 | 48.8 |  |  |
| Cc1ccc(-c2nn(-c3ccc(S(N)(=O)=O)cc3)cc2/C=N\c2ccc(Cl)cc2)cc1 | 78.4 | 69.1 | 33.33 | UI (Rattus norvegicus [3]): 5.8 |
| Cc1ccc(-c2nn(-c3ccc(S(N)(=O)=O)cc3)cc2-c2cc(-c3ccc(Cl)cc3)[nH]c2-c2ccc(F)cc2)cc1 | 66.7 | 75.4 | 16.67 | inhibition in vivo at 80 µmol/kg (Rattus norvegicus [1]): 14%; UI (Rattus norvegicus [3]): 15; inhibition in vivo at 160 µmol/kg (Rattus norvegicus [4]): 43.6%; Selectivity ratio (Homo sapiens): 0.87; LD50 at 24 h [6]: 3250 µmol/kg; IC50 (Rattus norvegicus [7]): 0.21 mmol/kg |
| Cc1ccc(-c2nn(-c3ccc(Cl)cc3)cc2-c2cc(-c3ccc(Cl)cc3)[nH]c2-c2ccc(F)cc2)cc1 | 21 | 38.3 | 33.33 | UI (Rattus norvegicus [3]): 13 |
| COc1ccc(/N=C\c2cn(-c3ccc(S(N)(=O)=O)cc3)nc2-c2ccc(OC)cc2)cc1 | 68.5 | 65.8 | 33.33 | UI (Rattus norvegicus [3]): 16.4; LD50 at 24 h [6]: 3250 µmol/kg |
| COc1ccc(C(=O)C(CC(=O)c2ccc(Cl)cc2)c2cn(-c3ccc(Cl)cc3)nc2-c2ccc(OC)cc2)cc1 (centres undefined) | 9.61 | 0 |  |  |

| Compound | inhibition in vivo at 320 µmol/kg (Rattus norvegicus [2]) [%] | inhibition in vivo at 320 µmol/kg (Rattus norvegicus [5]) [%] | Activity (Mus musculus) [%] | also measured |
| --- | --- | --- | --- | --- |
| Cc1ccc(-c2nn(-c3ccc(S(N)(=O)=O)cc3)cc2/C=N\c2ccccc2)cc1 | 57.1 | 58.1 |  |  |
| COc1ccc(C(=O)C(CC(=O)c2ccc(Cl)cc2)c2cn(-c3ccc(Cl)cc3)nc2-c2ccc(C)cc2)cc1 (centres undefined) | 23.9 | 16.1 |  |  |
| Cc1ccc(-c2nn(-c3ccc(Cl)cc3)cc2C(CC(=O)c2ccc(Cl)cc2)C(=O)c2ccc(F)cc2)cc1 (centres undefined) | 19.4 | 25.9 |  |  |
| Cc1ccc(-c2nn(-c3ccc(S(N)(=O)=O)cc3)cc2/C=C\C(=O)c2ccc(Cl)cc2)cc1 | 47.6 | 53.3 |  |  |
| COc1ccc(C(=O)C(CC(=O)c2ccc(Cl)cc2)c2cn(-c3ccc(S(N)(=O)=O)cc3)nc2-c2ccc(OC)cc2)cc1 (centres undefined) | 22.5 | 30.8 |  |  |
| COc1ccc(-c2nn(-c3ccc(S(N)(=O)=O)cc3)cc2C(CC(=O)c2ccc(Cl)cc2)C(=O)c2ccc(F)cc2)cc1 (centres undefined) | 68.1 | 72.2 | 33.33 |  |
| COc1ccc(-c2[nH]c(-c3ccc(Cl)cc3)cc2-c2cn(-c3ccc(Cl)cc3)nc2-c2ccc(C)cc2)cc1 | 21.3 | 9.38 |  |  |
| Cc1ccc(-c2nn(-c3ccc(S(N)(=O)=O)cc3)cc2C=O)cc1 | 68.2 | 58.4 | 16.67 | UI (Rattus norvegicus [3]): 9.6 |
| COc1ccc(-c2nn(-c3ccc(Cl)cc3)cc2C=O)cc1 | 57.6 | 63.1 | 33.33 |  |
| Cc1ccc(-c2nn(-c3ccc(Cl)cc3)cc2C=O)cc1 | 56 | 49.9 |  |  |
| COc1ccc(-c2nn(-c3ccc(S(N)(=O)=O)cc3)cc2C=O)cc1 | 81.5 | 83 | 16.67 | UI (Rattus norvegicus [3]): 11.2 |
| Cc1ccc(-c2nn(-c3ccc(Cl)cc3)cc2/C=N\c2ccccc2)cc1 | 49.3 | 40.1 |  |  |
| COc1ccc(-c2nn(-c3ccc(Cl)cc3)cc2/C=N\c2ccc(Cl)cc2)cc1 | 72.6 | 69.6 | 33.33 | UI (Rattus norvegicus [3]): 5.4; Selectivity ratio (Homo sapiens): 0.95 |
| Cc1ccc(-c2nn(-c3ccc(S(N)(=O)=O)cc3)cc2C(CC(=O)c2ccc(Cl)cc2)C(=O)c2ccc(F)cc2)cc1 (centres undefined) | 56.2 | 53.5 | 50 |  |
| CCCCC1C(=O)N(c2ccccc2)N(c2ccccc2)C1=O [PHENYLBUTAZONE] | 70.5 | 57.3 | 33.33 | inhibition in vivo at 80 µmol/kg (Rattus norvegicus [1]): 20%; UI (Rattus norvegicus [3]): 30.2; inhibition in vivo at 160 µmol/kg (Rattus norvegicus [4]): 42.1%; IC50 (Rattus norvegicus [7]): 0.22 mmol/kg |
| COc1ccc(-c2nn(-c3ccc(Cl)cc3)cc2-c2cc(-c3ccc(Cl)cc3)[nH]c2-c2ccc(F)cc2)cc1 | 61.9 | 53.7 | 33.33 | UI (Rattus norvegicus [3]): 12 |
| COc1ccc(C(=O)C(CC(=O)c2ccc(Cl)cc2)c2cn(-c3ccc(S(N)(=O)=O)cc3)nc2-c2ccc(C)cc2)cc1 (centres undefined) | 61.1 | 53.8 | 50 |  |
| Cc1ccc(-c2nn(-c3ccc(Cl)cc3)cc2/C=C\C(=O)c2ccc(Cl)cc2)cc1 | 61.4 | 49.2 |  |  |
| COc1ccc(-c2nn(-c3ccc(S(N)(=O)=O)cc3)cc2-c2cc(-c3ccc(Cl)cc3)[nH]c2-c2ccc(F)cc2)cc1 | 55.9 | 55.7 |  |  |
